Assay results from publication PMC10384666, “Impact of Peptide Structure on Colonic Stability and Tissue Permeability” (Pharmaceutics, 2023).
Bridge positions count the residues as written; N and C are the ends. Square brackets hold non-standard residues; d marks the D form. Ends that are not written are not given here. Peptide text beside a SMILES is read from it.

Assays:
[1] = Peptide tissue permeability, Ussing chamber with rat colonic tissue; format: in vitro ADME; conditions: for original dose detected in the basolateral chamber / original dose detected within the colonic tissue: at 2 h; for Papp at 2 h, 1 mg/mL: pH 7.4, 2 h (120 min)
Description: Peptide permeability studies were conducted using the NaviCyte Vertical Ussing chamber model (Harvard Apparatus, Cambridge, UK). Amounts of 250–300 g adult male Wistar rats (n = 3) were selected and sacrificed, in accordance with the accepted ethical standards of the National Research Ethics Service (ethical approval number 21/WA/0388). The rat colonic tissues were excised, processed to remove luminal contents and gently washed with Krebs-Ringer Bicarbonate (KBR) buffer (pH 7.4). Each colonic tissue was mounted on an Ussing chamber with the mucosal side facing the apical chamber. The tissue was allowed to acclimatise in the KBR buffer for 20 min. Transepithelial electrical resistance (TEER) across the tissue was measured using an EVOM^TM voltameter (World Precision Instruments, Inc., Hertfordshire, UK) and Ag/AgCl electrodes (Harvard Apparatus, Cambridge, UK). TEER values were measured to ensure the tissue integrity was maintained (≥200 Ω cm^2). The native oxytocin and oxytocin variants at 1 mg/mL concentrations were added to the apical chamber to measure peptide permeation into the tissue and into the basal chamber. Each peptide was tested twice using tissue from the three rats to account for any inter-animal variability. The Ussing chambers were continuously pumped with a supply of carbogen (95% oxygen/5% carbon dioxide) and maintained at 37 °C. An amount of 100 µL samples were taken from the basal side at 1 and 2 h timepoints. At 2 h, the tissues were collected, quenched with 6.25 µL methanol/mg tissue, sectioned with scissors, sonicated for 5 min and centrifuged for 10 min (4 °C, 16,900 RCF), with the supernatant used for peptide quantification. The amount of peptide within the basal chamber and tissue samples was measured with the HPLC method described in Section 3.3 and presented as the percentage of the peptide dose originally applied to the apical chamber. The apparent permeability (Papp) of peptides was calculated using Equation (1):(1) […]
Equation (1): Apparent permeability (Papp) of peptides across the rat colonic tissue was calculated using the peptide flux (µg/s, dQ/dt), the surface area of the tissue (cm^2) and the initial peptide concentration in the apical chamber (C0).

[2] = Peptide stability in a human colon model (pooled human faecal slurry, anaerobic); format: in vitro ADME; conditions: for higher stability than linear P1: at 30 min, relative to P1 (totally degraded); for Degradation rate constant / half-life at 1 mg/mL: fitted to exponential (one-phase, first-order) decay model; for Degradation rate constant: plateau 0.0; for remaining at 1.5 h, 1 mg/mL: after 1.5 h incubation, n = 3, read-out: peptide remaining intact (of starting concentration); for time interval in which entirely depleted: footnote to Table S1
Description: The human colon model (HCM) was prepared to mimic in vivo colonic conditions and maintain microbial viability. Fresh human faecal material was provided voluntarily from 3 healthy individuals who had not taken antibiotics for at least 6 months. Approval for the collection and use of human faecal material was obtained from the National Research Ethics Service (NRES) of Royal Free Hospital Biobank (reference number NC2017.010). Faecal material from the 3 donors was pooled and then diluted within an anaerobic workstation (37 °C, 70% relative humidity) (Elektrotek, Yorkshire, United Kingdom), using an in-house basal growth media to prepare 12.5% or 25% faecal slurries. These slurry concentrations have been used to measure the colonic stability of several drugs and exceed the minimum concentrations required for biorelevant bacterial activity. The samples were homogenised before being sieved (SefarNitex™, pore size 350 µm) to remove fibrous material. Faecal slurry was frozen at −80 °C in aliquots and thawed immediately prior to use.
Peptide stability studies were conducted within the anaerobic workstation (Elektrotek, Yorkshire, United Kingdom). An amount of 2 mg/mL stock solutions of oxytocin and oxytocin variants were prepared and added to HCM at a 1:1 ratio, leading to 1 mg/mL incubation concentrations (n = 3 for each peptide). Incubation vials were placed on a 100 RPM shaker and 50 µL samples were withdrawn at specific time intervals (0, 0.5, 1 and 1.5 h) and immediately quenched with 50 µL methanol (1:1) to terminate protease activity. Samples were centrifuged at 16,900 RCF for 10 min at 4 °C, and the supernatant was collected for peptide quantification with a 1260 II Series™ HPLC system (Agilent Technologies, Cheadle, UK). A Luna C18 (5 µm, 100 Å, 150 × 4.6 mm) HPLC column was used with a 1.0 mL/min flow rate, an injection volume of 20 µL and mobile phases of 0.1% TFA in water and ACN, with varying gradients for optimised individual peptide quantification to prevent overlap with endogenous components of the HCM.
All results are presented as mean ± standard deviation and subjected to statistical analysis using GraphPad Prism 9 (GraphPad by Dotmatics). Two-way ANOVA with Dunnett’s multiple comparison test was performed to determine statistical significance between peptides and native oxytocin at multiple timepoints. Results were deemed significant where p < 0.05. The physicochemical properties of peptides were estimated using RDKit (version 2021.09.4) in Python (version 3.6.15) via Jupyter Notebook (version 6.3.0) using the peptides’ isomeric SMILES. The Tanimoto similarities of the peptide variants’ molecular structure to native oxytocin was calculated using chemical fingerprints (ECFP6, radius 3, 2048 bits) RDKit (version 2022.9.1) with Python (version 3.7.0) via Google Colaboratory. Chemical similarity maps were generated using RDKit based on bit-vector fingerprints (chirality = true, radius 3, 2048 bits) and Tanimoto similarity. The degradation profiles of peptides were fitted to an exponential decay model in GraphPad Prism 9. A nonlinear regression (one-phase decay, also known as first-order decay) curve was fitted to the peptide stability data with a plateau constraint of 0.0.

[3] = human, human colon model (pooled human faecal slurry, anaerobic), HCM
[4] = human, human colon model (HCM), pooled human faecal slurry
[5] = male, Wistar, 1 mg/mL apical, read-out: apparent permeability (Papp)

Row | Compound | Degradation rate constant ([2]; HCM) | remaining at 1.5 h, 1 mg/mL [2, 3] | half-life at 1 mg/mL [2, 4] | further results
1 | CC[C@H](C)[C@@H]1NC(=O)[C@H](Cc2ccc(O)cc2)NC(=O)[C@@H](N)CSSC[C@@H](C(=O)N2CCC[C@H]2C(=O)N[C@@H](CC(C)C)C(=O)NCC(N)=O)NC(=O)[C@H](CC(N)=O)NC(=O)[C@H](CCC(N)=O)NC1=O [Oxytocin, oxytocin, reference compound] | 1.62 h⁻¹ | 6 ± 1.36% |  | original dose detected in the basolateral chamber [1]: not detected; original dose detected within the colonic tissue [1]: not detected; higher stability than linear P1 ([2]; HCM): 47.3 ± 1.98%; half-life at 1 mg/mL ([2]; human, HCM): 25.7 min
2 | CC[C@H](C)[C@@H]1NC(=O)[C@H](Cc2ccc(O)cc2)NC(=O)[C@@H](NC(C)=O)CSSC[C@@H](C(=O)N2CCC[C@H]2C(=O)N[C@@H](CC(C)C)C(=O)NCC(N)=O)NC(=O)[C@H](CC(N)=O)NC(=O)[C@H](CCC(N)=O)NC1=O [Peptide P2] | 3.17 h⁻¹ |  | 13.1 min | metabolised at 1.5 h, 1 mg/mL ([2]; human, human colon model (pooled human faecal slurry, anaerobic), HCM, after 1.5 h, read-out: peptide degraded by the HCM): 97.2 ± 0.84%
3 | CC[C@H](C)[C@@H]1NC(=O)[C@H](Cc2ccc(O)cc2)NC(=O)[C@H](C)NC(=O)CSC[C@@H](C(=O)N2CCC[C@H]2C(=O)N[C@@H](CC(C)C)C(=O)NCC(N)=O)NC(=O)[C@H](CC(N)=O)NC(=O)[C@H](CCC(N)=O)NC1=O [Peptide P3] ({CH2CO}-AYIQNCPLG-NH2; thioether N-6) | 0.688 h⁻¹ | 34.4 ± 0.61% | 60.4 min | 
4 | CC[C@@H](C)[C@H]1NC(=O)[C@@H](Cc2ccc(O)cc2)NC(=O)[C@@H](N)CSSC[C@@H](C(=O)N2CCC[C@H]2C(=O)N[C@H](CC(C)C)C(=O)NCC(N)=O)NC(=O)[C@H](CC(N)=O)NC(=O)[C@H](CCC(N)=O)NC1=O [Peptide P4] | 0.108 h⁻¹ | 85.1 ± 0.21% | 385 min | original dose detected in the basolateral chamber [1]: 6.85 ± 2.05%; original dose detected within the colonic tissue [1]: 3.0 ± 0.85%; Papp at 1 h, 1 mg/mL ([1]; male, Wistar, pH 7.4, 1 h (60 min), 1 mg/mL apical, read-out: apparent permeability (Papp)): 57 ×10⁻⁶ cm/s; Papp at 2 h, 1 mg/mL [1, 5]: 206 ×10⁻⁶ cm/s; higher stability than linear P1 ([2]; HCM): 90.3 ± 1.57%
5 | CC[C@@H](C)[C@H]1NC(=O)[C@@H](Cc2ccc(O)cc2)NC(=O)[C@H](C)NC(=O)CSC[C@@H](C(=O)N2CCC[C@H]2C(=O)N[C@H](CC(C)C)C(=O)NCC(N)=O)NC(=O)[C@H](CC(N)=O)NC(=O)[C@H](CCC(N)=O)NC1=O [Peptide P5] ({CH2CO}-A[dY][dI]QNCP[dL]G-NH2; thioether N-6) | 0.0322 h⁻¹ | 95.2 ± 3.14% | 1290 min | 
6 | CC[C@H](C)[C@@H]1NC(=O)[C@H](Cc2ccc(O)cc2)NC(=O)[C@@H](N)CSCc2cccc(c2)CSC[C@@H](C(=O)N2CCC[C@H]2C(=O)N[C@@H](CC(C)C)C(=O)NCC(N)=O)NC(=O)[C@H](CC(N)=O)NC(=O)[C@H](CCC(N)=O)NC1=O [Peptide P6] | 5.39 h⁻¹ |  | 7.71 min | time to 100% degradation ([2]; HCM): less than 1 h
7 | CC[C@H](C)[C@@H]1NC(=O)[C@H](Cc2ccc(O)cc2)NC(=O)[C@@H](N)CSSC[C@@H](C(=O)N2CCC[C@H]2C(=O)N[C@H](CC(C)C)C(=O)NCC(N)=O)NC(=O)[C@H](CC(N)=O)NC(=O)[C@H](CCC(N)=O)NC1=O [Peptide P7] | 1.05 h⁻¹ | 22.3 ± 0.85% | 39.6 min | 
8 | CC[C@@H](C)[C@H]1NC(=O)[C@@H](Cc2ccc(O)cc2)NC(=O)[C@@H](N)CSSC[C@@H](C(=O)N2CCC[C@H]2C(=O)N[C@@H](CC(C)C)C(=O)NCC(N)=O)NC(=O)[C@H](CC(N)=O)NC(=O)[C@H](CCC(N)=O)NC1=O [Peptide P8] | 2.33 h⁻¹ | 3.7 ± 0.43% | 17.8 min | 
9 | CC[C@H](C)[C@H](NC(=O)[C@H](Cc1ccc(O)cc1)NC(=O)[C@H](C)N)C(=O)N[C@@H](CCC(N)=O)C(=O)N[C@@H](CC(N)=O)C(=O)N[C@@H](C)C(=O)N1CCC[C@H]1C(=O)N[C@H](CC(C)C)C(=O)NCC(N)=O [Peptide P9] (H-AYIQNAP[dL]G-NH2) |  |  |  | time to total degradation ([2]; HCM): less than 30 min; time interval in which entirely depleted ([2]; HCM): 0.0 to 0.5 h
10 | CC[C@@H](C)[C@@H](NC(=O)[C@@H](Cc1ccc(O)cc1)NC(=O)[C@H](C)N)C(=O)N[C@@H](CCC(N)=O)C(=O)N[C@@H](CC(N)=O)C(=O)N[C@@H](C)C(=O)N1CCC[C@H]1C(=O)N[C@@H](CC(C)C)C(=O)NCC(N)=O [Peptide P10] (H-A[dY][dI]QNAPLG-NH2) | 2.05 h⁻¹ |  | 20.3 min | 
11 | CC[C@@H](C)[C@@H](NC(=O)[C@@H](Cc1ccc(O)cc1)NC(=O)[C@H](C)N)C(=O)N[C@@H](CCC(N)=O)C(=O)N[C@@H](CC(N)=O)C(=O)N[C@@H](C)C(=O)N1CCC[C@H]1C(=O)N[C@H](CC(C)C)C(=O)NCC(N)=O [Peptide P11] (H-A[dY][dI]QNAP[dL]G-NH2) | 0.289 h⁻¹ | 64.2 ± 1.18% | 144 min | Papp at 2 h, 1 mg/mL [1, 5]: 35.2 ×10⁻⁶ cm/s
12 | P1: Linear form of oxytocin, the two cysteines replaced by alanines (AYIQNAPLG-NH2; ends and bridges not checked; UniProt P01178 20-28, looked up, variant C1A C6A) [Peptide P1] |  |  |  | time interval in which entirely depleted ([2]; HCM): 0.0 to 0.5 h
